Test results as given in paper PMC7190983, “A Putative Efflux Transporter of the ABC Family, YbhFSR, in Escherichia coli Functions in Tetracycline Efflux and Na^+(Li^+)/H^+ Transport” (Frontiers in Microbiology, 2020).

Legend:
YbhFSR [1] = molecular target: T1, YbhFSR (Escherichia coli, UniProt P0AFP9+P0AFQ2); set-up: gene ybhS; details: 100 μg/ml tetracycline, Mg2+ buffer pH 8.0
YbhFSR [2] = molecular target: T1, YbhFSR; assay: whole-cell ethidium fluorescence efflux, knockout and complemented strains; type: cell-based; set-up: gene ybhS; native transporter in whole cells; ybhF knockout, acrB ybhF double knockout and ybhF overexpression strains compared; YbhG and TolC probably also take part; details: 2.5 μM EB preloaded, 25 mM glucose, 50 mM KPi pH 7.0, 5 mM MgSO4, 37 °C

Compound	whole-cell tetracycline fluorescence efflux and accumulation, knockout strains (YbhFSR [1])	whole-cell ethidium fluorescence efflux, knockout and complemented strains (YbhFSR [2])
CN(C)[C@@H]1C(=O)C(C(N)=O)=C(O)[C@@]2(O)C(=O)C3=C(O)c4c(O)cccc4[C@@](C)(O)[C@H]3C[C@@H]12 [tetracycline]	knockout of ybhF decreased the efflux of tetracycline and increased the intracellular accumulation	–
CC[n+]1c(-c2ccccc2)c2cc(N)ccc2c2ccc(N)cc21 [ethidium bromide]	–	the ybhF gene knockout reduced the ethidium efflux capacity
